Measured values as given in patent publication US5114926A, “Tetrapeptide inhibiting the entry into cycle of hemopoietic stem cells processes for its preparation, and its uses” (Institut National De La Sante Et De La Recherche Medicale, priority 1986, dated 1992).
Values joined by “and” are separate entries in the source; they are usually repeats but may differ in a detail not shown here. Identical values can stand only once. Where a SMILES comes first, the peptide text is derived from it.

What was measured:
EMT6 tumor = assay: regression of EMT6 tumors under Ara-C plus inhibitor; format: in vivo, mice; details: EMT6 tumor carriers, Ara-C at 0, 7, 24 and 30 hours, inhibitor at 26 hours
[1] = lethality in the treated mice; format: in vivo; details: at the doses used
CFU-S [2] = assay: toxicity with respect to CFU-S; format: in vivo, mice; details: at the doses used
CFU-S [3] = assay: in vivo inhibition of the entry into cycle of the CFU-S induced by an injection of Ara-C; design: species or system mice of Balb/C or CBA strain; details: for % of CFU-S in DNA synthesis: protocol II, i.p.; for biological activity compared with the natural peptide: synthetic versus natural peptide, tables I, II and III
Method: The biological activity of the fractions is measured by in vivo inhibition tests of the entry into cycle of the CFU-S, induced by an injection of Ara-C.
The CFU-S of the mouse, normally quiescent, enter into cycle after an injection of Ara-C.
The number of CFU-S is determined by the technique of J. E. Till and E. A. McCulloch, Radiat. Res. 14, (1961), 213-222, whose principle rests on the capacity of CFU-S to form macroscopic colonies in the spleen. These colonies are clones descended from one CFU-S.
The proportion of CFU-S in S phase is determined by the method of A. J. Becker et al., Blood, 26, (1965), 296-308, based on the principle of cellular suicides. The incubation of the cells with a tritiated thymidine (precursor of DNA) solution leads to the selective death of the cells in phase of DNA synthesis by integration of a lethal dose of radioactivity (tritium) into the DNA molecule.
The tests are performed on SPF (Specific Pathogen Ffree)mice of Balb/C or CBA strain, aged from 2 to 3 months.
1. The control groups receive by the i.p. route the following treatment:
Time 0: Ara-C (10 mg--protocol I or 20 mg--protocol II) dissolved in 0.2 ml of saline;
Time 6H: 0.2 ml of saline;
Time 8H: sacrifice (protocol I);
Time 12H: sacrifice (protocol II).
2. The treated groups receive by the i.p. route:
Time 0: Ara-C (10 mg--protocol I or 20 mg--protocol II) dissolved in 0.2 ml of saline.
Time 6h: fraction to be tested dissolved in 0.2 ml of saline;
Time 8H: sacrifice (protocol I):
Time 12H: sacrifice (protocol II). [drawing 1]
For each of the groups, the bone marrow of the animals is collected and suspended in 2 ml of Medium 199 (EUROBIO). After the numbering and suitable dilution, 2 aliquots of 5×10^6 nucleated cells are incubated at 37° C. for 20 min. either with 1 ml of Medium 199 (Test A), or with 1 ml of tritiated thymidine (200 μCi) (Test B). A cellular suspension of 0.2 ml containing 8×10^4 to 1.2×10^5 nucleated cells is injected intravenously into the retro-orbital sinus of the irradiated receiver animals (9 Gy, 8 mice per experimental plot). Nine days later, the receiver mice are sacrificed, their spleen taken out and fixed in Bouin fluid (1% picric acid: 720 g; formol: 240 g; acetic acid: 4 g, per 1 l of fluid). After some hours of fixation, the nodules visible macroscopically are counted.
If N and N' are the average numbers of the nodules obtained on the spleens of the receivers having received cells coming form tests A and B respectively, the proportion of CFU-S in phase of DNA synthesis is calculated by the formula: [formula]

[4] = survival of animals treated with lethal doses of Ara-C; format: in vivo, mice; details: Ara-C 4×925 mg/kg at 0, 7, 24 and 30 hours; tested fraction once at 26 hours
Method: The animals receive fractionated doses of Ara-C (4×925 mg/kg) at times 0, 7, 24 and 30 hours. The tested fraction is administered at once 26 hours after the first injection of Ara-C. The survival of the animals is estimated 15-30 days after the treatment.

CC(=O)N[C@@H](CO)C(=O)N[C@@H](CC(=O)O)C(=O)N[C@@H](CCCCN)C(=O)N1CCC[C@H]1C(=O)O [inhibitor, n--acetyl-seryl-aspartyl-lysyl-proline] (Ac-SDKP-OH)
effect on the therapeutic action of Ara-C with respect to tumor cells (EMT6 tumor): does not prevent the therapeutic action of Ara-C with respect to tumor cells
survival of the treated animals (EMT6 tumor; comparable with bone marrow grafting): permits the survival of the treated animals
lethality in the treated mice [1]: does not result in any lethality
toxicity with respect to CFU-S (CFU-S [2]): devoided of toxicity with respect to CFU-S
percentages of CFU-S in phase of DNA synthesis (CFU-S [3]; ARA-C + natural peptide 100 ng/mouse, bone marrow batch A (5 exp.)): 12.6 ± 14.8%
percentages of CFU-S in phase of DNA synthesis (CFU-S [3]; ARA-C + natural peptide 100 ng/mouse, bone marrow batch B (2 exp.)): 2.99 ± 13%
percentages of CFU-S in phase of DNA synthesis, mean (CFU-S [3]; ARA-C + natural peptide, mean of batches A and B): 7.8%
% of CFU-S in DNA synthesis (CFU-S [3]; Ara-C (20 mg) + inhibitor (100 ng per mouse)): 7 ± 4%
dosage at which the fraction is active in the mouse (CFU-S [3]; homogeneous fraction after reverse phase HPLC): about 100 ng/mouse
entry of the CFU-S into DNA synthesis (S phase) (CFU-S [3]; inhibitor injected 6 hours after Ara-C): prevents the entry of the CFU-S into DNA synthesis
survival of the animals 15-30 days after the treatment [4]: enabled the definitive survival of a large number of animals

CC(=O)N[C@@H](CO)C(=O)N[C@@H](CC(=O)O)C(=O)N[C@@H](CCCCN)C(=O)N1CCC[C@H]1C(=O)O [synthetic tetrapeptide, Ac-S-D-K-P--OH] (Ac-SDKP-OH)
percentages of CFU-S in phase of DNA synthesis (CFU-S [3]; ARA-C + synthetic tetrapeptide 25 ng/mouse, test 6, second synthesis): 19%
percentages of CFU-S in phase of DNA synthesis (CFU-S [3]; ARA-C + synthetic tetrapeptide 50 ng/mouse, test 5, second synthesis): 13%
percentages of CFU-S in phase of DNA synthesis (CFU-S [3]; ARA-C + synthetic tetrapeptide 100 ng/mouse, tests 4, 7, 8, second synthesis): 6% and 10%
percentages of CFU-S in phase of DNA synthesis, mean (CFU-S [3]; ARA-C + synthetic tetrapeptide, mean of tests 1-8 (25-100 ng/mouse)): 10.5%
biological activity compared with the natural peptide (CFU-S [3]): possesses the biological properties of the natural peptide
biological activity compared with the natural peptide (CFU-S [3]; listed as synthetic peptide): quite similar activity to that obtained with a natural peptide

Nc1ccn([C@@H]2O[C@H](CO)[C@@H](O)[C@@H]2O)c(=O)n1 [Ara-C, cytosine arabinoside, reference compound]
percentages of CFU-S in phase of DNA synthesis (CFU-S [3]; ARA-C alone, Table III batch A series (5 exp.)): 40.7 ± 9.3%
percentages of CFU-S in phase of DNA synthesis (CFU-S [3]; ARA-C alone, Table III batch B series (2 exp.)): 47.4 ± 9%
percentages of CFU-S in phase of DNA synthesis, mean (CFU-S [3]; ARA-C alone, mean of Table II tests 1-8): 38.7%
percentages of CFU-S in phase of DNA synthesis, mean (CFU-S [3]; ARA-C alone, mean of Table III series A and B): 44.1%
% of CFU-S in DNA synthesis (CFU-S [3]; Ara-C (20 mg) alone): 43 ± 9%
